From US20120122728A1, “Method Of Screening Drugs For Reversal Of Amyloid Beta Neurotoxicity” (UNIVERSITY OF CENTRAL FLORIDA RESEARCH FOUNDATION, INC., priority 2009, published 2012)

How the values were obtained:
[1] = system: cultured embryonic rat hippocampal neurons; assay: MEA extracellular recording of spontaneous firing of cultured hippocampal neurons exposed to Aβ; type: cell-based; design: time until spiking activity of the cells stopped: dose or concentration left out as unconfirmed
Description: The MEAs and accompanying accessories, including the temperature controller, stimulator, amplifier and MC_Rack V 3.5.8 data acquisition software were obtained from ALA Scientific (Westbury, N.Y.) and Multichannel Systems (Reutlingen, Germany). The MEAs comprised of a glass base that acted as a substrate, gold connector contacts and electrodes composed of titanium nitride. Rings were made of Sylgard184 (Dow Corning) (1 part curing base and 10 parts elastomer base, cured at 60 uC for 45 minutes) using glass molds and were attached onto the MEAs after surface modification. Recordings were obtained from 12-16 D. old cultures. Cultures were kept in the incubator between recording sessions.
N-1(3-[trimethoxysilyl]propyl)-diethylenetriamine (DETA) was used to modify the MEAs to enhance cell attachment since the use of synthetic substrates such as DETA, allows for reproducible and precise quantification of the culture substrate properties. Glass coverslips (18 mm diameter, Number 1; VWR) were cleaned in two steps. First, they were soaked in 50/50% HCl (37%) (VWR)/methanol (Sigma), followed by H2SO4 (98%) (VWR) treatment. Next, they were rinsed in double distilled water. The coverslips were then boiled in deionized water, rinsed with acetone, and oven dried. The MEAs were initially cleaned overnight in 2% Tergazyme (Sigma) detergent solution. They were then rinsed in distilled water and plasma cleaned in a plasma cleaner (Harrick Plasma) for 30 mins. The N-1(3-[trimethoxysilyl]propyl)-diethylenetriamine (DETA) (United Chemical Technologies) surface assembled monolayer (SAM) film was formed by the reaction of the cleaned surfaces with a 0.1% (v/v) mixture of the organosilane in toluene. The DETA/toluene solution containing the MEAs was heated to 70 uC, rinsed with toluene, reheated to 70 uC, and then oven dried. Surfaces were characterized using contact angle measurement and X-ray photoelectron spectroscopy (XPS) as described previously.
(§1) All applied procedures were approved by the Institutional Animal Care and Use Committee of UCF. The protocol was modified from previously published work concerning embryonic rat hippocampal cultures. Pregnant rats, 18 days in gestation, obtained from Charles River were euthanized with carbon dioxide and the fetuses were collected in ice cold Hibernate E (BrainBits)/B27/Glutamax™/Antibiotic-Antimycotic (Invitrogen) (dissecting medium). Each fetus was decapitated and the whole brain was transferred to fresh ice cold dissecting medium. After isolation, the hippocampi were collected in a fresh tube of dissecting medium. Hippocampal neurons were obtained by triturating the tissue using a Pasteur pipette. In order to remove any debris from damaged cells the 1 ml cell suspension was layered over a 4 ml step gradient (Optipep diluted 0.505:0.495 (v/v) with the dissecting medium and then made to 15%, 20%, 25% and 35% (v/v) in the dissecting medium) followed by centrifugation for 15 min at 800 g and 4 uC. After centrifugation, one strong band of cells was obtained. This band of cells was resuspended in culture medium (Neurobasal/B27/Glutamax™/Antibiotic-Antimycotic) and plated at a density of 100 cells/mm2 on DETA coated coverslips for patch clamp electrophysiology and at 200 cells/mm2 on the MEAs.
(§2) Different concentrations of Aβ (1-42) (Bachem) aggregates were prepared according to the protocol by Klein [1] in Neurobasal medium without phenol red, and quantified using Immunoblots. Curcumin (Cayman Chemicals) was prepared and the concentration chosen according to previously published protocols.
In all experiments with MEAs Aβ was administered to the cells on day 16 in vitro. We chose experimental paradigms similar to those used for patch clamp electrophysiology, to study the potential therapeutic effects of curcumin. In coadministration experiments, cells were exposed to a mixture of 100 nM Aβ and 1 mM Curcumin for 24 hrs, and recordings were performed. […]

Aβ oligomerization [2] = biological target: T1, Aβ oligomerization (Homo sapiens, UniProt P05067); conditions: literature [20], compared with Ibuprofen; cited from earlier work
T1 sequence (P05067 672-713 limits assumed): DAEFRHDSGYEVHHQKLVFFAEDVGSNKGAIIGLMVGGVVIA

Aβ oligomerization [3] = biological target: T1, Aβ oligomerization; assay: Immunoblot of Aβ oligomers; type: biochemical; conditions: immunoblot lane 2
Description: Different concentrations of Aβ (1-42) (Bachem) aggregates were prepared according to the protocol by Klein [1] in Neurobasal medium without phenol red, and quantified using Immunoblots. Curcumin (Cayman Chemicals) was prepared and the concentration chosen according to previously published protocols [20].

amyloid plaque burden = conditions: transgenic APPsw mice; cited from earlier work
[4] = system: cultured embryonic rat hippocampal neurons; assay: Whole cell patch clamp electrophysiology of hippocampal neurons exposed to Aβ; type: cell-based
From the text: as §1, §2
For patch clamp electrophysiology experiments, Aβ was administered to the cells on day 10 in vitro and recordings were performed after 24 hrs to obtain baseline values for control cells and Aβ treated cells. In coadministration experiments, a mixture of 100 nM Aβ and 1 mM curcumin was administered for 24 hrs after which patch clamp electrophysiology recordings were performed. In sequential administration, cells were initially exposed to freshly aggregated Aβ alone, followed by replacement of the Aβ solution with curcumin for 24 hrs patch clamp recordings were performed 24 hrs after curcumin treatment. Whole-cell patch clamp recordings were performed at room temperature in a recording chamber on the stage of a Zeiss Axioscope 2 FS Plus upright microscope as described in [44].

hippocampal cells = assay: Cell survival (live dead assay, MTT assay) after Aβ treatment; type: cell-based, rat
Description: To confirm this finding a MTT assay (3-[4,5-dimethylthiazol-2-yl]-2,5-diphenyl tetrazolium bromide) was performed on the amyloid treated cells and this supported the results obtained with the live dead assay.

[5] = all measured concentrations of Aβ

Molecule | time at which drop in firing frequency reached a plateau ([1]; after curcumin and Aβ were coadministered) | time at which recovery of spontaneous firing was observed ([1]; after curcumin was applied post Aβ exposure) | Aβ oligomer formation and Aβ toxicity (Aβ oligomerization [2]) | Aβ oligomerization in the presence of Curcumin (Aβ oligomerization [3]) | amyloid plaque burden (amyloid plaque burden) | ameliorating Aβ toxicity, coadministration versus administration after 24 h Aβ ([4]; low doses of curcumin) | time until the cells stopped firing ([1]; 50 nM Aβ, lowest concentration) | time until spiking activity of the cells stopped ([1]; Aβ, highest concentration tested) | effect on spontaneous spiking activity [1, 5] | firing frequency preceding blockade of spontaneous activity [1, 5] | cell survival compared to the control (hippocampal cells; 100 nM Aβ, 24 hours and 7 days) | cell death (hippocampal cells; high concentrations of Aβ, cells on MEAs) | outward (K+) currents ([4]; 100 nM Aβ, 24 h) | resting membrane potential ([4]; 100 nM Aβ, 24 h) | spontaneous firing ([4]; 100 nM Aβ, 24 h, 30 exposed cells)
COc1cc(/C=C/C(=O)CC(=O)/C=C/c2ccc(O)c(OC)c2)ccc1O [curcumin] | about 18 hrs | around 10 hrs | inhibiting Aβ oligomer formation and Aβ toxicity at significantly lower concentrations than Ibuprofen | apparent inhibition of Aβ oligomerization | reduce amyloid plaque burden | more successful in ameliorating Aβ toxicity when coadministered with Aβ | – | – | – | – | – | – | – | – | –
Aβ: Amyloid beta (1-42) peptide (Bachem), soluble oligomer aggregates used as neurotoxicant [Aβ (1-42)] | – | – | – | – | – | – | about 11 h | about 150 min | completely abolishes spontaneous spiking activity | significant increase in firing frequency | small differences in cell survival compared to the control | high cell death | increase in the amplitude of the outward (K^+) currents | depolarization in the resting membrane potential | no spontaneous action potentials were recorded
